We go through 5 compounds from patent EP0908457B1, “3-(1,2-benzisothiazol- and isoxazol-5-Y1)-2,4(1H,3H)-pyrimidinedione or thione and 3-(1,2-benzisothiazol- and isoxazol-5-y1)-4(3H)-pyrimidinone or thione herbicidal agents” (BASF AKTIENGESELLSCHAFT, priority 1997, dated 1999).

Common to all, as to format: in vivo
Assay [1] has as its system Echinochloa oryzoides (Ard.) Fritsch. The assay is described as follows: Preemergence weed control under flooded paddy conditions, ECHORC (Watergrass (Calif.)). On herbicidal effect rating, ECHORC: meaning of each grade not given here. To be noted: flooded paddy, rated three to four weeks after treatment.
In another assay the test system is Cyperus iria. As to the kind of experiment: Preemergence weed control under flooded paddy conditions, CYPIR (Rice Flatsedge). On herbicidal effect rating, CYPIR: meaning of each grade not given here. The conditions noted are these: flooded paddy, rated three to four weeks after treatment.
The test system of assay [2] is Cyperus serotinus, Rottb. The assay is described as follows: Preemergence weed control under flooded paddy conditions, CYPSE (Flatsedge). On herbicidal effect rating, CYPSE: meaning of each grade not given here. To be noted: rated three to four weeks after treatment.
Assay [3] deals with Monochoria vaginalis, Presl. As to the kind of experiment: Preemergence weed control under flooded paddy conditions, MOOVA (Monochoria). On herbicidal effect rating, MOOVA: meaning of each grade not given here. To be noted: flooded paddy, rated three to four weeks after treatment.
The next assay concerns Sagittaria pygmaea, L. As to the kind of experiment: Preemergence weed control under flooded paddy conditions, SAGPY (Arrowhead (Pygmaea)). On herbicidal effect rating, SAGPY: meaning of each grade not given here. To be noted: flooded paddy, rated three to four weeks after treatment.
The mark [4] stands for this setting: Rate 0.0313 kg/ha, preemergence.
[5] abbreviates: Rate 0.0625 kg/ha, preemergence.
The mark [6] stands for this setting: Rate 0.1250 kg/ha, preemergence.
Setting [7] is: Rate 0.2500 kg/ha, preemergence.
The mark [8] stands for this setting: Rate 0.0320 kg/ha, preemergence weeds.
[9] abbreviates: Rate 0.0620 kg/ha, preemergence weeds.
The mark [10] stands for this setting: Rate 0.1250 kg/ha, preemergence weeds.
Where [11] appears, read: Rate 0.2500 kg/ha, preemergence weeds.
The mark [12] stands for this setting: Rate 0.0320 kg/ha, preemergence.
[13] abbreviates: Rate 0.0620 kg/ha, preemergence.
Where [14] appears, read: Rate 0.5000 kg/ha, preemergence.

Take `CC(OCc1nsc2ccc(-n3c(=O)cc(C(F)(F)F)n(C)c3=O)cc12)C(F)(F)F` (centres unmarked) [Example 208]: the “ECHORC herbicidal effect rating” value in assay [1] (setting [4]), in assay [1] (setting [5]), in assay [1] (setting [6]) and in assay [1] (setting [7]) was 0.0 each time. For the same compound, the “CYPIR herbicidal effect rating” value with Cyperus iria (setting [4]), in the assay on Cyperus iria (setting [5]), in the assay with Cyperus iria (setting [6]) and in the assay on Cyperus iria (setting [7]) was 9.0 throughout. The “CYPSE herbicidal effect rating” value in assay [2] (setting [4]), in assay [2] (setting [5]), in assay [2] (setting [6]) and in assay [2] (setting [7]) was 0.0 in each case. For the same compound, the “MOOVA herbicidal effect rating” value in assay [3] (setting [4]) amounted to 0.0; in assay [3] (setting [5]), 2.0; in assay [3] (setting [6]) it was 2.0; in assay [3] (setting [7]), 4.0. The “SAGPY herbicidal effect rating” value was 0.0 with Sagittaria pygmaea, L. (setting [4]); 0.0 in the assay on Sagittaria pygmaea, L. (setting [5]); 0.0 in the assay on Sagittaria pygmaea, L. (setting [6]); 0.0 in the assay on Sagittaria pygmaea, L. (setting [7]).

As to `CC(OS(C)(=O)=O)c1nsc2ccc(-n3c(=O)cc(C(F)(F)F)n(C)c3=O)cc12` (centres unmarked) [Example 309, 2,4(1H,3H)-Pyrimidinedione, 3-[3-(1-hydroxyethyl)-1,2-benzisothiazol-5-yl]-1-methyl-6-(trifluoromethyl)-, methanesulfonate (ester)], the “herbicidal effect rating, ECHORC” value in assay [1] (setting [8]) was 1.0; in assay [1] (setting [9]), 2.0; in assay [1] (setting [10]), 4.0; in assay [1] (setting [11]), 7.0. The “herbicidal effect rating, CYPIR” value with Cyperus iria (setting [8]), in the assay on Cyperus iria (setting [9]), in the assay with Cyperus iria (setting [10]) and with Cyperus iria (setting [11]) was 9.0 throughout. Also, the “herbicidal effect rating, CYPSE” value in assay [2] (setting [8]) came to 0.0; in assay [2] (setting [9]), 0.0; in assay [2] (setting [10]), 0.0; in assay [2] (setting [11]), 7.0. For the same compound, the “herbicidal effect rating, MOOVA” value in assay [3] (setting [8]) is on record as 6.0; in assay [3] (setting [9]), 6.0; in assay [3] (setting [10]) it was 9.0; in assay [3] (setting [11]), 9.0. In addition, the “herbicidal effect rating, SAGPY” value with Sagittaria pygmaea, L. (setting [8]) is recorded as 2.0; in the assay with Sagittaria pygmaea, L. (setting [9]), 3.0; in the assay on Sagittaria pygmaea, L. (setting [10]) it was 4.0; in the assay on Sagittaria pygmaea, L. (setting [11]) it was 8.0.

For `Cn1c(C(F)(F)F)cc(=O)n(-c2ccc3snc(CO[N+](=O)[O-])c3c2)c1=O` [Example 310, 2,4(1H,3H)-Pyrimidinedione, 3-[3-(hydroxymethyl)-1,2-benzisothiazol-5-yl]-1-methyl-6-(trifluoromethyl)-, nitrate (ester)], the “herbicidal effect rating, ECHORC” value is given as 0.0 in assay [1] (setting [8]), 0.0 in assay [1] (setting [9]), 2.0 in assay [1] (setting [10]) and 3.0 in assay [1] (setting [11]). The “herbicidal effect rating, CYPIR” value in the assay on Cyperus iria (setting [8]), with Cyperus iria (setting [9]), in the assay on Cyperus iria (setting [10]) and in the assay on Cyperus iria (setting [11]) was 9.0 each time. Further, the “herbicidal effect rating, CYPSE” value in assay [2] (setting [8]), in assay [2] (setting [9]), in assay [2] (setting [10]) and in assay [2] (setting [11]) was 0.0 each time. Also, the “herbicidal effect rating, MOOVA” value in assay [3] (setting [8]), in assay [3] (setting [9]), in assay [3] (setting [10]) and in assay [3] (setting [11]) was 9.0 in each case. The “herbicidal effect rating, SAGPY” value is 0.0 with Sagittaria pygmaea, L. (setting [8]); 0.0 in the assay with Sagittaria pygmaea, L. (setting [9]); 0.0 in the assay on Sagittaria pygmaea, L. (setting [10]); 0.0 in the assay on Sagittaria pygmaea, L. (setting [11]).

On to `Cn1c(C(F)(F)F)cc(=O)n(-c2ccc3snc(COS(C)(=O)=O)c3c2)c1=O` [Example 363, 2,4(1H,3H)-Pyrimidinedione, 3-[3-(hydroxymethyl)-1,2-benzisothiazol-5-yl]-1-methyl-6-(trifluoromethyl)-, methanesulfonate (ester)], for which the “herbicidal effect rating, ECHORC” value is 3.0 in assay [1] (setting [12]); 4.0 in assay [1] (setting [13]); 5.0 in assay [1] (setting [6]); 6.0 in assay [1] (setting [7]); 7.0 in assay [1] (setting [14]). The “herbicidal effect rating, CYPIR” value is given as 6.0 with Cyperus iria (setting [12]); 7.0 in the assay with Cyperus iria (setting [13]); 7.0 with Cyperus iria (setting [6]); 7.0 in the assay with Cyperus iria (setting [7]); 8.0 in the assay on Cyperus iria (setting [14]). Besides, the “herbicidal effect rating, CYPSE” value in assay [2] (setting [12]) was 0.0; in assay [2] (setting [13]) it was 0.0; in assay [2] (setting [6]), 5.0; in assay [2] (setting [7]), 7.0; in assay [2] (setting [14]), 7.0. The “herbicidal effect rating, MOOVA” value in assay [3] (setting [12]), in assay [3] (setting [13]), in assay [3] (setting [6]), in assay [3] (setting [7]) and in assay [3] (setting [14]) was 9.0 in each case. Besides, the “herbicidal effect rating, SAGPY” value is recorded as 3.0 in the assay on Sagittaria pygmaea, L. (setting [12]); 5.0 in the assay with Sagittaria pygmaea, L. (setting [13]); 7.0 in the assay with Sagittaria pygmaea, L. (setting [6]); 9.0 with Sagittaria pygmaea, L. (setting [7]); 9.0 with Sagittaria pygmaea, L. (setting [14]).

On to `Cn1c(C(F)(F)F)cc(=O)n(-c2ccc3snc(COC(=O)c4ccccc4)c3c2)c1=O` [Example 364, 2,4(1H,3H)-Pyrimidinedione, 3-[3-(hydroxymethyl)-1,2-benzisothiazol-5-yl]-1-methyl-6-(trifluoromethyl)-, benzoate (ester)], for which the “herbicidal effect rating, ECHORC” value is 3.0 in assay [1] (setting [12]); 5.0 in assay [1] (setting [13]); 6.0 in assay [1] (setting [6]); 6.0 in assay [1] (setting [7]); 7.0 in assay [1] (setting [14]). The “herbicidal effect rating, CYPIR” value came out at 7.0 with Cyperus iria (setting [12]); 7.0 in the assay with Cyperus iria (setting [13]); 9.0 in the assay with Cyperus iria (setting [6]); 9.0 in the assay on Cyperus iria (setting [7]); 9.0 in the assay with Cyperus iria (setting [14]). Moreover, the “herbicidal effect rating, CYPSE” value in assay [2] (setting [12]) is 3.0; in assay [2] (setting [13]), 3.0; in assay [2] (setting [6]) it was 5.0; in assay [2] (setting [7]), 6.0; in assay [2] (setting [14]) it was 7.0. Also, the “herbicidal effect rating, MOOVA” value in assay [3] (setting [12]), in assay [3] (setting [13]), in assay [3] (setting [6]), in assay [3] (setting [7]) and in assay [3] (setting [14]) was 9.0 in each case. Besides, the “herbicidal effect rating, SAGPY” value in the assay on Sagittaria pygmaea, L. (setting [12]) came out at 4.0; in the assay on Sagittaria pygmaea, L. (setting [13]) it was 4.0; with Sagittaria pygmaea, L. (setting [6]) it was 5.0; in the assay with Sagittaria pygmaea, L. (setting [7]) it was 9.0; with Sagittaria pygmaea, L. (setting [14]), 9.0.
